The text below walks through data of patent US5063222A, “Antiinflammatory dexamethasone 17α-cyclopropanecarboxylates with reduced systemic activity” (SS Pharmaceutical Co., Ltd., priority 1989, dated 1991).

For assay [1], the system named is carrageenin edema of the paw of rats. The experiment in a line: Carrageenin paw edema, local (into paw) administration, edema inhibition ED40; local selectivity (A)/(B). The format is in vivo, Wister male rats. Conditions: ratio of ED40 systemic to ED40 local. As for the experimental part:
(§1) Using Wister male rats weighting 130-150 g, each group consisting of 6 rats, the local selectivity of the anti-inflammatory action was investigated by the systemic and local administration of the compounds of the present invention and comparative compounds.
For the local administration test, the test compound suspended in 1% carrageenin was subcutaneously injected into a paw in the rats at doses of 0.01, 0.03, and 1.0 μg/paw (0.1 ml/paw). Three hours after the carrageenin injection, the volume of the edema was compared with the corresponding value of the control group, thus obtaining the edema inhibition rate, from which ED40 was determined.
The ratio of the ED40 values thus obtained was taken for the evaluation of the local selectivity. [formula]
The higher the value, the greater is the selectivity.
For orientation: The carrageenan paw model is a standard test of acute inflammation.

Another assay deals with human skin. Put plainly: Skin vessel constriction activity (local anti-inflammatory effect on human skin). The format is in vivo, human (healthy male subjects). Conditions: probit method. As for the experimental part:
Skin vessel constriction effects on human skin of the present invention were investigated according to the following method. Dexamethasone 17,21-dipropionate which is known as a very strong anti-inflammatory agent for external application was used as a comparative compound.
Fifteen (15) healthy male subjects who were free from any skin disease anamnesis, such as eczema, dermatosis, or the like, received the test. Test compounds were diluted with 95% ethanol to make 6 sample solutions with different concentrations; highest concentration: 1×10^-2, lowest concentration: 1×10^-7. A strap to which acryl cells (diameter: 12 mm, thickness: 2 mm, height, 3 mm) were fixed was applied to the back of each subject. The test compound solution was then dropped with a pippet, 0.02 ml per drop, according to a key-code allocated at random. After drying by air, the strap was peeled off. The coated area was covered with a polyvinylidene chloride film, of which the periphery was fixed with a strap for the patch test. The period of time during which the covering was applied was 16 hours. The judgment was made according to the following standard four times at 1, 2, 5, and 8 hours after the removal of the film.
++: The coated skin was strongly pale.
+: The coated skin was distinctly pale.
±: The coated skin was slightly pale.
The results were analyzed by the probit method to obtain the ED50 value (≥+) at which the coated area was clearly pale. The results are shown in Table 2, in which the relative value for the compounds of the present invention determined by taking the ED50 value for dexamethasone 17,21-dipropionate as 100 are given in parentheses.

For assay [2], the system named is carrageenin edema of the right hind paw of rats. Put plainly: Carrageenin paw edema, systemic (subcutaneous, back) administration, edema inhibition ED40. Type of assay: in vivo, Wister male rats. The conditions noted are these: Rattus norvegicus, sc; s.c. into back, 60 min before 1% carrageenin; edema 3 hours after carrageenin. As for the experimental part: as §1
In the evaluation of systemic administration, a test compound suspended into 1% gum arabic was subcutaneously injected into back of rats at doses of 0.01, 0.03, 0.1, and 0.3 mg/kg (5 ml/kg). After 60 minutes following the administration, 1% carrageenin (0.1 ml) was injecte into the plantar surface of the right hind paw. The paw volume was measured with a plethysmometer before and 3 hours after the carrageenin injection. The value was compared with the corresponding value of the control group, thus obtaining the edema inhibition rate, from which ED40 was determined.

Where [3] appears, read: 1 hour after removal of film (16 hours covering).
The mark [4] stands for this setting: 2 hours after removal of film (16 hours covering).
The mark [5] stands for this setting: 5 hours after removal of film (16 hours covering).
[6] abbreviates: 8 hours after removal of film (16 hours covering).

In the case of `C[C@@H]1C[C@H]2[C@@H]3CCC4=CC(=O)C=C[C@]4(C)[C@@]3(F)[C@@H](O)C[C@]2(C)[C@@]1(OC(=O)C1CC1)C(=O)CO` [Compound No. 1, 9α-fluoro-11β,17,21-trihydroxy-16α-methylpregna-1,4-diene-3,20-dione 17-cyclopropanecarboxylate], the “Local Selectivity (A)/(B)” value in assay [1] stood at 3.50. Also, the “ED50 value (≥ +) concentration” value is 1.45 × 10^-4% in the assay on human skin (setting [3]), 1.19 × 10^-4% with human skin (setting [4]), 7.29 × 10^-4% in the assay with human skin (setting [5]) and 1.24 × 10^-2% in the assay with human skin (setting [6]). In assay [2], the ED40 came to 0.28 mg/kg.
For the compound `C[C@@H]1C[C@H]2[C@@H]3CCC4=CC(=O)C=C[C@]4(C)[C@@]3(F)[C@@H](O)C[C@]2(C)[C@@]1(OC(=O)C1CC1)C(=O)COC(=O)C1CC1` [Compound No. 4, 9α-fluoro-11β,17,21-trihydroxy-16α-methylpregna-1,4-diene-3,20-dione 17,21-dicyclopropanecarboxylate], in assay [1], the “Local Selectivity (A)/(B)” value is on record as 3.95. The “ED50 value (≥ +) concentration” value is 5.10 × 10^-4% with human skin (setting [3]), 3.17 × 10^-4% with human skin (setting [4]), 2.00 × 10^-3% in the assay on human skin (setting [5]) and 1.36 × 10^-2% in the assay with human skin (setting [6]). In assay [2], this compound returned an ED40 of 0.83 mg/kg.
With `CCCC(=O)OCC(=O)[C@@]1(OC(=O)CCC)[C@H](C)C[C@H]2[C@@H]3CCC4=CC(=O)C=C[C@]4(C)[C@@]3(F)[C@@H](O)C[C@@]21C` [dexamethasone-17,21-dibutylate, reference compound], the “Local Selectivity (A)/(B)” value in assay [1] stood at 2.00. In assay [2], the ED40 came to 0.34 mg/kg.
Consider `CCC(=O)OCC(=O)[C@@]1(OC(=O)CC)[C@H](C)C[C@H]2[C@@H]3CCC4=CC(=O)C=C[C@]4(C)[C@@]3(F)[C@@H](O)C[C@@]21C` [dexamethasone-17,21-dipropionate, Dexamethasone 17,21-dipropionate, reference compound], for which the “ED50 value (≥ +) concentration” value in the assay on human skin (setting [3]) is 5.48 × 10^-4%; in the assay on human skin (setting [4]), 4.11 × 10^-4%; in the assay with human skin (setting [5]), 8.62 × 10^-3%; with human skin (setting [6]), 3.19 × 10^-2%.
In the case of `CCCC(=O)O[C@]1(C(=O)CO)[C@H](C)C[C@H]2[C@@H]3CCC4=CC(=O)C=C[C@]4(C)[C@@]3(F)[C@@H](O)C[C@@]21C` [dexamethasone-17-butylate, reference compound], in assay [1], the “Local Selectivity (A)/(B)” value turned out to be 0.62. Further, the ED40 in assay [2] is 0.18 mg/kg.
